# According to ChEMBL document CHEMBL4196115 (ACS Med Chem Lett, 2018):
# Residue numbers refer to the chain shown, from its start. Active and inactive are the calls of the source. The calls are words filed in the database; no cut-off is given here.
# Experiments:
# [1] = target: T1, Muscarinic acetylcholine receptor M2 (Homo sapiens) (UniProt P08172); assay: Agonist activity at human muscarinic acetylcholine receptor M2 expressed in CHO cells; assay type: functional, cell-based
# T1 sequence (whole entry): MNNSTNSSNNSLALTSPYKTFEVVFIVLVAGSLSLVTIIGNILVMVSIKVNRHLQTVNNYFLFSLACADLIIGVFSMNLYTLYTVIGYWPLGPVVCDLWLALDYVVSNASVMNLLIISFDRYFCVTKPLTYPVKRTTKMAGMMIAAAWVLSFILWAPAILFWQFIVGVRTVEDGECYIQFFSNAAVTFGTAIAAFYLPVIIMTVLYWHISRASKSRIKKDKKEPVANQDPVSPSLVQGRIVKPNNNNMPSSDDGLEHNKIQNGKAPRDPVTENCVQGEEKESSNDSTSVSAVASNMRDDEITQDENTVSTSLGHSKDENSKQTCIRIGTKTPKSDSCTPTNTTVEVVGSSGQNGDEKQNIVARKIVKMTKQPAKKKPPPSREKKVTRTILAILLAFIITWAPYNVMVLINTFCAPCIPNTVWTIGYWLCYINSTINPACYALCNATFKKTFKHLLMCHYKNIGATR
# [2] = target: T1, Muscarinic acetylcholine receptor M2 (Homo sapiens); assay: Positive allosteric modulation of human muscarinic acetylcholine receptor M2 expressed in CHO cells; assay type: functional, cell-based
# [3] = system: Mus musculus; assay: Antialzheimer activity in mouse assessed as unbound brain concentration required for reversal of scopolamine-induced emotional memory deficits by measuring increase in freezing at 3 mg/kg, ip measured after 24 hrs by contextual fear conditioning assay; assay type: functional, organism-based
# [4] = target: T2, Muscarinic acetylcholine receptor M5 (Homo sapiens) (UniProt P08912); assay: Agonist activity at human muscarinic acetylcholine receptor M5 expressed in CHO cells; assay type: functional, cell-based
# T2 sequence (whole entry): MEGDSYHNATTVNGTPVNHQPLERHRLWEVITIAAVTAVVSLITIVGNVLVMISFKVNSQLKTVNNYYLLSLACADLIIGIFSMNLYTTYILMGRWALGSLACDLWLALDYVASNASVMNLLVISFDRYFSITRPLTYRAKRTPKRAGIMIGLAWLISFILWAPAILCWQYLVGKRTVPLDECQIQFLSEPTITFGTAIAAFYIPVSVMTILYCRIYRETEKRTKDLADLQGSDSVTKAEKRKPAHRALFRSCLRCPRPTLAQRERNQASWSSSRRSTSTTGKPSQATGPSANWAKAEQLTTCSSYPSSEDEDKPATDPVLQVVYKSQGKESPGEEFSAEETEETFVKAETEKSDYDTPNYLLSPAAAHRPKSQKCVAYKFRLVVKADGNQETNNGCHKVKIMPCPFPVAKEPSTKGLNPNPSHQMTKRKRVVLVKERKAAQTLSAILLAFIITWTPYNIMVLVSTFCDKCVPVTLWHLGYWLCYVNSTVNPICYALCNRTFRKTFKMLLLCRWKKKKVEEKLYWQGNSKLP
# [5] = target: Muscarinic acetylcholine receptor M3 (Homo sapiens) (UniProt P20309); assay: Positive allosteric modulation of human muscarinic acetylcholine receptor M3 expressed in CHO cells; assay type: functional, cell-based
# [6] = target: T2, Muscarinic acetylcholine receptor M5 (Homo sapiens); assay: Positive allosteric modulation of human muscarinic acetylcholine receptor M5 expressed in CHO cells; assay type: functional, cell-based
# [7] = target: T3, Muscarinic acetylcholine receptor M1 (Macaca mulatta) (UniProt P56489); conditions: CHO
# T3 sequence (whole entry): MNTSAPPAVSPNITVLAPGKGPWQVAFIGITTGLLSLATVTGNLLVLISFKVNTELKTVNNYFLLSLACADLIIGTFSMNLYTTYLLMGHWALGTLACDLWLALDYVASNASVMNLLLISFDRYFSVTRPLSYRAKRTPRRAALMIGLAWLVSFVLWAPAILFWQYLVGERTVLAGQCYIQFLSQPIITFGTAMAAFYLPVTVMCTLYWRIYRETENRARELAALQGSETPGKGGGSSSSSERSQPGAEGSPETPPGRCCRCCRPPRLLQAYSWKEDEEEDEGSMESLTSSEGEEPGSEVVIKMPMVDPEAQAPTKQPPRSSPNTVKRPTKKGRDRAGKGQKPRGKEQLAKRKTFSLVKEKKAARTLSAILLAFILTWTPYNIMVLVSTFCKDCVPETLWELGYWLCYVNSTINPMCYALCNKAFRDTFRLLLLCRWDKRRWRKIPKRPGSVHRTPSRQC
# Description: Positive allosteric modulation of rhesus monkey muscarinic acetylcholine receptor M1 expressed in CHO cells assessed as increase in acetylcholine-induced calcium mobilization pretreated for 4 mins followed by acetylcholine addition and measured after 4 mins by Fluo-4-AM dye based FLIPR assay
# [8] = target: T4, Muscarinic acetylcholine receptor (Canis lupus familiaris) (UniProt A0A8C0MJA7); conditions: CHO
# T4 sequence (whole entry): T3 sequence (whole entry) with V155I, P246R, A248T, P265T, D277E, Q312P, K331R, D335E, P343A, D393N
# Description: Positive allosteric modulation of dog muscarinic acetylcholine receptor M1 expressed in CHO cells assessed as increase in acetylcholine-induced calcium mobilization pretreated for 4 mins followed by acetylcholine addition and measured after 4 mins by Fluo-4-AM dye based FLIPR assay
# [9] = system: Mus musculus; assay: Antialzheimer activity in mouse assessed as reversal of scopolamine-induced emotional memory deficits by measuring increase in freezing at 3 mg/kg, ip measured after 24 hrs by contextual fear conditioning assay; assay type: functional, organism-based
# [10] = target: T5, Muscarinic acetylcholine receptor M4 (Homo sapiens) (UniProt P08173); assay: Agonist activity at human muscarinic acetylcholine receptor M4 expressed in CHO cells; assay type: functional, cell-based
# T5 sequence (whole entry): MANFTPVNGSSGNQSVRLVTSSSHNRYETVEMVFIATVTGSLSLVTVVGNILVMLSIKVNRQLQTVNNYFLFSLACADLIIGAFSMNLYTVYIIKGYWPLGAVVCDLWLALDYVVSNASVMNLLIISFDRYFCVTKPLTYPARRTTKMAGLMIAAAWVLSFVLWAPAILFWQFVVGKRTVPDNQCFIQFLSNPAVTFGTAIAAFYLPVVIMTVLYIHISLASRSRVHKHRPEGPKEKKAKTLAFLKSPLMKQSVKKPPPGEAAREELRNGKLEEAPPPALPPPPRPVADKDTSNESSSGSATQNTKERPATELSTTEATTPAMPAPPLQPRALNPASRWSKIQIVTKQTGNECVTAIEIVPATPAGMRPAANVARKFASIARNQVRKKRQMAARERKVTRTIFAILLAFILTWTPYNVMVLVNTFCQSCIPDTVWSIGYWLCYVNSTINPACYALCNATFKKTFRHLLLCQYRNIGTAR
# [11] = target: Muscarinic acetylcholine receptor M3 (Homo sapiens) (UniProt P20309); assay: Agonist activity at human muscarinic acetylcholine receptor M3 expressed in CHO cells; assay type: functional, cell-based
# Sequence of Muscarinic acetylcholine receptor M3 (Homo sapiens) (P20309 whole entry, looked up): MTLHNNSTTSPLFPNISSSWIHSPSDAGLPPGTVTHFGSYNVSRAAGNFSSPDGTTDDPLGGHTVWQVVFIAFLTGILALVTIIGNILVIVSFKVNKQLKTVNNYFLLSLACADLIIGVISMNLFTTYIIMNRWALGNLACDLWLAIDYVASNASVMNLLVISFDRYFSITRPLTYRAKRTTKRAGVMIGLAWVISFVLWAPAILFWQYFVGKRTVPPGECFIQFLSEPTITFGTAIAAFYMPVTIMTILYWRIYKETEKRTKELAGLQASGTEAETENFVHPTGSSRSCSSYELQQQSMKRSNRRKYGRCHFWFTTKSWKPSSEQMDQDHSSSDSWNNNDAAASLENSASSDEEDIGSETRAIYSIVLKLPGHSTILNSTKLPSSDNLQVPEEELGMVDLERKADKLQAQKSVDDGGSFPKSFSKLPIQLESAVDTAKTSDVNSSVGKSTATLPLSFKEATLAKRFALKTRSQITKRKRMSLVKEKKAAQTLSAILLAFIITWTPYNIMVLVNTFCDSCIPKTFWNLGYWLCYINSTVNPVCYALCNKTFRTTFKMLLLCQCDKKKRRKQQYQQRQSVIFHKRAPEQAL
smiles,measurement,setting,value
Cc1ccc(Cc2cc3c(=O)n([C@H]4CCCC[C@@H]4O)cnc3c3ccccc23)cn1,Activity,[1],inactive
same,Activity,[2],inactive
same,Drug uptake(free),[3],24 nM
same,Activity,[4],inactive
same,Activity,[5],inactive
same,Activity,[6],inactive
same,IP,[7],3.8 nM
same,IP,[8],1.4 nM
same,Activity,[9],Active
same,Activity,[10],inactive
same,Activity,[11],inactive
